Laboratory results reported in patent US20250179114A1, “Anti-Inflammatory Compound and Use Thereof” (DUALITY BIOLOGICS (SUZHOU) CO., LTD., priority 2021, published 2025).
One block for each compound: values may come before it.

Experiments:
glucocorticoid receptor = molecular target: T1, glucocorticoid receptor (Homo sapiens, UniProt P04150); experiment: Activity assay of glucocorticoid receptor reporter gene GRE; format: cell-based; settings: HEK293 cells transfected with pGL5 and pBIND-GR; 24 h; Dual-Glo luciferase
T1 construct: host or cells: HEK293
T1 sequence (P04150 1-777): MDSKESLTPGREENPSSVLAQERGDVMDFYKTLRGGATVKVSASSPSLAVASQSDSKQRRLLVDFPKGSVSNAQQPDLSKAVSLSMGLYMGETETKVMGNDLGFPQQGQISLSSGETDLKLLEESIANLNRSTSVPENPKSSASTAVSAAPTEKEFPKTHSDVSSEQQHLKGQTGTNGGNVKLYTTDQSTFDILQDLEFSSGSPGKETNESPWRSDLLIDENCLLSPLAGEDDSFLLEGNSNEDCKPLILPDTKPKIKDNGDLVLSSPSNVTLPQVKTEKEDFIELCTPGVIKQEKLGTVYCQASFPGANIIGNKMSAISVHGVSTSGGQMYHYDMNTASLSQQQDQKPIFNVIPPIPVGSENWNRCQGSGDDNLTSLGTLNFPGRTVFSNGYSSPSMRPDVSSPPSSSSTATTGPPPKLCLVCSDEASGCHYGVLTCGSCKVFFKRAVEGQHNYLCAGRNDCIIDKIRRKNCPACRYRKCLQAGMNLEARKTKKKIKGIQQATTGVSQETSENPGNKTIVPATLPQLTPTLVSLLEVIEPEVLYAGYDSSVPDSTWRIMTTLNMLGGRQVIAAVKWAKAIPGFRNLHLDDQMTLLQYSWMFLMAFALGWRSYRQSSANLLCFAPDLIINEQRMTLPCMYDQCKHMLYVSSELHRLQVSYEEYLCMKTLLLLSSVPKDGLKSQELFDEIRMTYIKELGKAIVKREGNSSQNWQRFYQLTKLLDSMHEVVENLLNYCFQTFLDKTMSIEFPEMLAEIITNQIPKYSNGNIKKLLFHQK
Protocol: (§1) HEK293 cells were cultured in DMEM+10% FBS medium in a carbon dioxide incubator humidified at 37° C. with 5% carbon dioxide.
HEK293 cells were digested with trypsin, and the HEK293 cell resuspension was adjusted to 200,000 cell/mL in medium (96 well plate: 100 μL/well).
Transfection reagent mixtures were prepared according to Tables 5a and 5b below, mixed well and left to stand at room temperature for 20 min.
(§2) The prepared transfection mixtures were added to 10 mL of the cell density-adjusted resuspension, mixed well by turning the mixtures upside down, and seeded into a 96-well plate at a volume of 100 μL/well.
The 96-well plate was incubated in a humidified incubator at 37° C. with 5% carbon dioxide for 24 h.
The test plate was placed back into the incubator and incubated for 24 h.
(§3) The test plate was detected using the Dual-Glo Luciferase Assay System kit from Promega, and the fluorescence signal of Firefly Luciferase and the fluorescence signal of Renilla Luciferase were read using Enspire, respectively.
The final measurement value was a normalized value “F/R” obtained by dividing the Firefly Luciferase fluorescent signal by the Renilla Luciferase fluorescent signal.
The data were copied and pasted into Excel, and the activation rate was obtained through an equation.
The data were imported into MS Excel and subjected to curve fitting by using XLFit excel add-in version 5.4.0.8 to obtain an EC50 value.
(§4) Y is the agonism and X is the concentration of the compound.

GR = molecular target: T2, GR (Homo sapiens, UniProt P04150); experiment: GR luciferase reporter gene elution experiment; format: cell-based; settings: supernatant removed and washed, then 24 h; for Elution time (Act %) 15 min: incubation 15 min; for Elution time (Act %) 30 min: incubation 30 min; for Elution time (Act %) 1 h: incubation 1 h; for Elution time (Act %) 2 h: incubation 2 h; for Elution time (Act %) 4 h: incubation 4 h
T2 construct: host or cells: HEK293
T2 sequence (P04150 1-777): T1 sequence (P04150 1-777)
Protocol: The compounds of the present application were evaluated for their ability to continue activation upon binding to GR.
as §1
• 1) HEK293 cells were digested with trypsin, and the HEK293 cell resuspension was adjusted to 200,000 cell/mL in medium (96 well plate: 100 μL/well). • 2) Transfection reagent mixtures were prepared according to the table below, mixed well and left to stand at room temperature for 20 min.
as §2, with “• 3) The” for “The”, “μL/well. • 4) The 96-well plate was incubated in a humidified incubator at 37° C. with 5% carbon dioxide for 24 h.” for “μL/well.”
as §3
5. Data Processing • 1) The final measurement value was a normalized value “F/R” obtained by dividing the Firefly Luciferase fluorescent signal by the Renilla Luciferase fluorescent signal. • 2) The data were copied and pasted into Excel, and the activation rate was obtained through an equation.
[formula] • 3) The data were imported into MS Excel and subjected to curve fitting by using XLFit excel add-in version 5.4.0.8 to obtain an EC50 value.
as §4

DBA/1J mice = experiment: Bovine type II collagen mixed adjuvant-induced DBA/1 mouse arthritis (CIA) model; format: in vivo; settings: Table 10-2; 0.2 mg/kg p.o.; mean
Protocol: Example 6: Assay of Biological Activity of Bovine Type II Collagen Mixed Adjuvant-Induced DBA/1 Mouse Arthritis Model
The potency of the ligand-drug conjugates (ADCs) of the present application was evaluated in a bovine collagen-induced arthritis (CIA) model.
Male DBA/1J mice were obtained from Jackson Labs. The mice were used at 6-8 weeks of age. All animals were given ad libitum access to food and water under a 12-hour light/dark cycle at constant temperature and humidity.
Bovine collagen (Chondrex, Inc. Cat: 20021) was dissolved in 0.1 M acetic acid and stored overnight in a 2-8 C refrigerator at a collagen concentration of 8 mg/mL, and an equal volume of CFA (complete Freund's adjuvant, Difco, Laurence, KS) was added into the collagen solution and emulsified in a high speed homogenizer to make an emulsion. On Day 0, animals in need of immunization were anesthetized with 2%-5% isoflurane and male DBA/J mice were immunized once with a single subcutaneous injection of 50 μL collagen/CFA emulsion at the tail root of 2-3 cm from the body. Three weeks later, namely on Day 21, the tail root was immunized twice with the same volume of collagen emulsion by the same injection method. After the second immunization, 120 animals with an average score of about 2 for the limb arthritis were selected and randomly grouped. The animals were treated by a single intraperitoneal injection of test reagent according to the experimental design after grouping. For the dexamethasone (Sphsine) treatment group, the drug was administered the day after grouping until the end of the trial. The extremities of each group were observed twice weekly for the onset of arthritis from the time of the second immunization, and the observation was continued until the end of the trial.
Scoring according to the degree of lesion (redness and swelling) was performed on a scale of 0-4 points, with a maximum score of 4 for each limb and a total maximum score of 16 for each animal's limbs. The scoring criteria are as follows: 0 points, no redness and swelling; 1 point, 1-2 red and swollen interphalangeal joints; 2 points, 3-4 red and swollen interphalangeal joints; 3 points, more than 4 red and swollen interphalangeal joints; 4 points, severe redness and swelling in toes or fingers to ankle joints or wrist joints. For joint swelling, ankle thickness of hind paw of each animal was measured with a screw micrometer before one immunization. Since the second immunization, measurements were performed 2 times per week, and changes in ankle thickness before and after the immunization were compared. After the trial was completed, all animals were anesthetized with 2-5% isoflurane and then euthanized by exsanguination.
Score AUC: area under the curve for arthritis score. The results are shown in Tables 10-1 and 10-2 and FIGS. 3a-3c.

Compound: C[C@]12C=CC(=O)C=C1CC[C@H]1[C@@H]3C[C@H]4O[C@@H](c5ccc(Cc6ccc(N)cc6)s5)O[C@@]4(C(=O)CO)[C@@]3(C)C[C@H](O)[C@@]12F [Compound 17]
Elution time (Act %) 15 min (GR): 1.7%
Elution time (Act %) 30 min (GR): 0.7%
Elution time (Act %) 1 h (GR): 1.3%
Elution time (Act %) 2 h (GR): 2.9%
Elution time (Act %) 4 h (GR): 9.7%
EC50 (glucocorticoid receptor): 0.33 nM

Compound: CC12C=CC(=O)C=C1CCC1C2C(O)CC2(C)C1CC1OC(c3ccc(Oc4cccc(N)c4)cn3)OC12C(=O)CO [Compound 19, (6aR,6bS,7S,8aS,8bS,10R,11aR,12aS,12bS)-10-(5-(3-aminophenoxy)pyridin-2-yl)-7-hydroxy-8b-(2-hydroxyacetyl)-6a,8a-dimethyl-1,2,6a,6b,7,8,8a,8b,11a,12,12a,12b-dodecahydro-4H-naphtho[2′,1′:4,5]indeno[1,2-d][1,3]dioxol-4-one]
EC50 (glucocorticoid receptor): > 1000 nM

Compound: C[C@]12C=CC(=O)C=C1CC[C@@H]1[C@@H]2[C@@H](O)C[C@@]2(C)[C@H]1C[C@H]1O[C@@H](c3coc(Cc4cccc(N)c4)c3)O[C@]12C(=O)CO [Compound 20]
EC50 (glucocorticoid receptor): > 1000 nM

Compound: C[C@]12C=CC(=O)C=C1CC[C@@H]1[C@@H]2[C@@H](O)C[C@@]2(C)[C@H]1C[C@H]1O[C@H](c3cnc(Cc4cccc(N)c4)s3)O[C@]12C(=O)CO [Compound 28S]
EC50 (glucocorticoid receptor): > 1000 nM

Compound: C[C@@H]1C[C@H]2[C@@H]3CCC4=CC(=O)C=C[C@]4(C)[C@@]3(F)[C@@H](O)C[C@]2(C)[C@@]1(O)C(=O)CO [Dexamethasone, dexamethasone]
Elution time (Act %) 15 min (GR): 9.4%
Elution time (Act %) 30 min (GR): 10.0%
Elution time (Act %) 1 h (GR): 7.2%
Elution time (Act %) 2 h (GR): 6.2%
Elution time (Act %) 4 h (GR): 31.9%
Arthritis score AUC (area under the curve for arthritis score) (DBA/1J mice): 24.50
Arthritis score D 0 (DBA/1J mice): 0.00
Arthritis score D 21 (DBA/1J mice): 0.00
Arthritis score D 24 (DBA/1J mice): 0.00
Arthritis score D 28 (DBA/1J mice): 0.00
Arthritis score D 31 (DBA/1J mice): 2.10
Arthritis score D 35 (DBA/1J mice): 2.90
Arthritis score Day 38 (DBA/1J mice): 1.30
Arthritis score Day 42 (DBA/1J mice): 0.50
Arthritis score Day 45 (DBA/1J mice): 0.20
Arthritis score Day 49 (DBA/1J mice): 0.00
Arthritis score Day 52 (DBA/1J mice): 0.00
Arthritis score Day 56 (DBA/1J mice): 0.00

The remaining compounds from weak to strong by EC50 (glucocorticoid receptor), led by results:

EC50 (glucocorticoid receptor): 10 nM
Compound: C[C@]12C=CC(=O)C=C1CC[C@@H]1[C@@H]2[C@@H](O)C[C@@]2(C)[C@H]1C[C@H]1O[C@@H](c3cnc(Cc4cccc(N)c4)s3)O[C@]12C(=O)CO [Compound 28, reference compound]

EC50 (glucocorticoid receptor): 0.63 nM
Compound: C[C@]12C=CC(=O)C=C1CC[C@@H]1[C@@H]2[C@@H](O)C[C@@]2(C)[C@H]1C[C@H]1O[C@@H](c3ccc(Cc4ccc(N)cc4)s3)O[C@]12C(=O)CO [Compound 15]

EC50 (glucocorticoid receptor): 0.37 nM
Compound: C[C@]12C=CC(=O)C=C1CC[C@@H]1[C@@H]2[C@@H](O)C[C@@]2(C)[C@H]1C[C@H]1O[C@@H](c3ccc(Cc4cccc(N)c4)s3)O[C@]12C(=O)CO [Compound 11]

EC50 (glucocorticoid receptor): 0.28 nM
Compound: C[C@]12C=CC(=O)C=C1CC[C@@H]1[C@@H]2[C@@H](O)C[C@@]2(C)[C@H]1C[C@H]1O[C@@H](c3cc(Cc4cccc(N)c4)cs3)O[C@]12C(=O)CO [Compound 18]

EC50 (glucocorticoid receptor): 0.13 nM
Compound: C[C@]12C=CC(=O)C=C1CC[C@H]1[C@@H]3C[C@H]4O[C@@H](c5ccn(Cc6cccc(N)c6)c5)O[C@@]4(C(=O)CO)[C@@]3(C)C[C@H](O)[C@@]12F [Compound 7]

EC50 (glucocorticoid receptor): 0.07 nM
Compound: C[C@]12C=CC(=O)C=C1CC[C@H]1[C@@H]3C[C@H]4O[C@@H](c5ccn(Cc6ccc(N)cc6)c5)O[C@@]4(C(=O)CO)[C@@]3(C)C[C@H](O)[C@@]12F [Compound 8]
